# Key:
# [1] = system: Human sebocytes; test: Proliferation of human sebocytes; format: cell-based; conditions: 24 hours, MTT, read-out: AP-Sebo IC50
# Procedure: Human sebocytes (Celprogen) and keratinocytes (ATCC) were grown in 96-well culture microplate (Coming) with growth media to around 50% confluency. Media was changed to growth media mixed with serially diluted compounds in DMSO (1:1000 dilution). After treatment for 24 hours, media was changed to 100 μL phenol red free DMEM and cell numbers were quantitated by using Vybrant® MTT Cell Proliferation Assay Kit (Molecular Probes). Ten μL of 12 mM MTT stock solution was added to each well and the microplate was incubated at 37° C. for 4 hours. Then 100 μL of the SDS-HCl solution was added to each well and mixed thoroughly using a pipette. The microplate was incubated at 37° C. for 4 hours in a cell culture incubator. The microplate was mixed again using a pipette and absorbance was read at 570 nm (Dynex MRX^e Magellan Biosciences). Effect of compounds on proliferation of human keratinocytes was calculated by % of DMSO vehicle control.
# [2] = system: T1, Mouse ACC (ACC protein purified from liver); test: Mouse ACC enzymatic activity assay; format: biochemical; conditions: read-out: EA-CoA mACC IC50
# T1 construct: ACC protein was purified by taking advantage of the biotinylation in the carboxylase domain
# Outline: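 ACC affinity-purified from livers of male C57BL/6J mice (biotin-based capture), pre-incubated 10 min at 37 °C with compound. Reaction with 0.5 mM acetyl-CoA, 4.0 mM ATP, 15 mM 13C-NaHCO3, 0.5 mM citrate, pH 7.5, 1 h at 37 °C; malonyl-13C-CoA quantified by LC-MS/MS as pmoles/mg protein per minute.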
# [3] = target: T2, human ACC2 (Homo sapiens, UniProt O00763); test: Human ACC enzymatic activity assay (ACC2); format: biochemical; conditions: purified human ACC2; read-out: EA-CoA hACC 2 IC50
# T2 construct: purchased BPS Bioscience
# T2 sequence (O00763 whole entry): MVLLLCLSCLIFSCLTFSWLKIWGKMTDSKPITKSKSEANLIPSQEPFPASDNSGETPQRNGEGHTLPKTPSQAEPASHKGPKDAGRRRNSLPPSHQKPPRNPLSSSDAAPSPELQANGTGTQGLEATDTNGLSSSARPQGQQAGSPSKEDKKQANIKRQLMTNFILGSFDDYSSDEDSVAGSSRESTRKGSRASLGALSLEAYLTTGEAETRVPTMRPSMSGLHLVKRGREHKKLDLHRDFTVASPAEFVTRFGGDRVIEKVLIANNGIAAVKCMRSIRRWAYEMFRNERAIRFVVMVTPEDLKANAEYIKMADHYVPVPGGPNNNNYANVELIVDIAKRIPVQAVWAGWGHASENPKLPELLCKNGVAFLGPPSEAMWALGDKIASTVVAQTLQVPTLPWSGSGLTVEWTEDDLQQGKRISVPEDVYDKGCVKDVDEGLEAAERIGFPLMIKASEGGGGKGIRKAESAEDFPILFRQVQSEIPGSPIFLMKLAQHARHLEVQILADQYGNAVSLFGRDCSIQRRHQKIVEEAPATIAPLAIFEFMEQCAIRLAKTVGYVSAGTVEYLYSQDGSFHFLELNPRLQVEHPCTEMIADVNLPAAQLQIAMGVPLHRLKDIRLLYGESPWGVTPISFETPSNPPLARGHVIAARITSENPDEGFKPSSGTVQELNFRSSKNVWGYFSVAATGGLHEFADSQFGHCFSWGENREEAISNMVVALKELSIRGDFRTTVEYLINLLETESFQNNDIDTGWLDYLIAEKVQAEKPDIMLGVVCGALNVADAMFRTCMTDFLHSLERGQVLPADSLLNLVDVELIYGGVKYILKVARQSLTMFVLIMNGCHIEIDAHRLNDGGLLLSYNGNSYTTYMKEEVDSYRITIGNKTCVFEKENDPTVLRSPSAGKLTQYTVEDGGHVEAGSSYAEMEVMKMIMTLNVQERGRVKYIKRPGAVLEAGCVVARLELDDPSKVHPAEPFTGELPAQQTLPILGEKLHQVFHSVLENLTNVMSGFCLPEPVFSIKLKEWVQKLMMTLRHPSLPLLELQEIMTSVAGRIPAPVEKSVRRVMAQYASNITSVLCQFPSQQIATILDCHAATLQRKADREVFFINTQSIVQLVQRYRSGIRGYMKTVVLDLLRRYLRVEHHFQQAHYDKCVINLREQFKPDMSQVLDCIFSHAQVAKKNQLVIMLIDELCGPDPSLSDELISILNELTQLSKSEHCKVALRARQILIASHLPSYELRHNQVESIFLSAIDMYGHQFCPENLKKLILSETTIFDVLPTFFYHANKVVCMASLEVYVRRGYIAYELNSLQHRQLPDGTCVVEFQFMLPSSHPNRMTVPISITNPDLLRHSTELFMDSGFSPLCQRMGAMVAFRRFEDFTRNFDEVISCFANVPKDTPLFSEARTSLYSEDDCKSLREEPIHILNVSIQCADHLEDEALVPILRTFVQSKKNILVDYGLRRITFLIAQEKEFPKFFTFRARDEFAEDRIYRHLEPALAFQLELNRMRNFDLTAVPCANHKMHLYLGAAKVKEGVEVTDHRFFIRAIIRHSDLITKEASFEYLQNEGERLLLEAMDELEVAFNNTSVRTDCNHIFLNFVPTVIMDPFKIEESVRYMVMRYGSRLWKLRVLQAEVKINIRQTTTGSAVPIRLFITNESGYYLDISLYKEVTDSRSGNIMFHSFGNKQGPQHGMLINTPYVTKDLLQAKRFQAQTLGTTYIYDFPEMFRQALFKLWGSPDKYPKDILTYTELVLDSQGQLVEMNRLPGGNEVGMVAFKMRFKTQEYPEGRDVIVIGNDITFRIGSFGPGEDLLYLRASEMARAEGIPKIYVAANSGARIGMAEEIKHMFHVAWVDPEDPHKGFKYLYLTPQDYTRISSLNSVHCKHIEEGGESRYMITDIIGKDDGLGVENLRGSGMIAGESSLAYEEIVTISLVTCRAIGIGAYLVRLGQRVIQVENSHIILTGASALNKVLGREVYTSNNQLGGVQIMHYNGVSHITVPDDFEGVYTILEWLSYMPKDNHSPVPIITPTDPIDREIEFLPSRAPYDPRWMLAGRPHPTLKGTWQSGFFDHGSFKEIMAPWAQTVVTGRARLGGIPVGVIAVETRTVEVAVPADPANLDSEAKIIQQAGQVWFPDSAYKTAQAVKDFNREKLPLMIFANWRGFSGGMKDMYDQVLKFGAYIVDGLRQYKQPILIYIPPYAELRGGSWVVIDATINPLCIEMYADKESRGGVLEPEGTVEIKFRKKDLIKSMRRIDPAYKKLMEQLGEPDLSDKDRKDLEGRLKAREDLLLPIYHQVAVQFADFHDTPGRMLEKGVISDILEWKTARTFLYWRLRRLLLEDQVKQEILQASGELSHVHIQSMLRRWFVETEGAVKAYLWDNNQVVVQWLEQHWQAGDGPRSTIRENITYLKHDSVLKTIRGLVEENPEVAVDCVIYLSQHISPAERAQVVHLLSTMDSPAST
# Outline: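 Purified human ACC1 (0.4 μg/mL) or ACC2 (0.48 μg/mL) was preincubated with compound 10 min at 37° C in HEPES pH 7.5 with 4.0 mM ATP and 15 mM ^13C-NaHCO3. The reaction was started with 5 μM acetyl-CoA, run 1-2 h at 37° C and stopped with TCA. Labelled malonyl-CoA was quantified by LC-MS/MS.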
IC50 [2],IC50 [3],SMILES,IC50 [1]
2.4 nM,,"COc1cc(C(=O)N2CCC3(CC2)Cc2ccc(C(C)C)cc2C(=O)O3)nc2c(OC)cccc12 [Example 2, 1′-(4,8-dimethoxyquinoline-2-carbonyl)-7-isopropylspiro[isochroman-3,4′-piperidin]-1-one]",57.1 nM
0.34 nM,31.2 nM,"COc1cc(C(=O)N2CCC3(CC2)Cc2ccc(Nc4ccnn4C)cc2C(=O)O3)nc2c(OC)cccc12 [Example 6, 1′-(4,8-dimethoxyquinoline-2-carbonyl)-7-((1-methyl-1H-pyrazol-5-yl)amino)spiro[isochroman-3,4′-piperidin]-1-one]",2.5 nM

# Source: patent US12102633B2, “Spirolactone compounds” (Quixgen, Inc., priority 2017, dated 2024)
